Data as given in patent US8946266B2, “Substituted triazole and imidazole derivatives as gamma secretase modulators” (Janssen Pharmaceuticals, Inc., priority 2009, dated 2015).

Tests used:
[1] = system: Aβ42; experiment: γ-secretase-modulating activity, Method 1: Aβ42 sandwich ELISA in supernatant of SKNBE2 cells carrying APP 695-wild type (Table 3a); assay type: cell-based; details: 18 h, averaged IC50 values
Experimental: Pharmacology A) Screening of the Compounds of the Invention for γ-Secretase-Modulating Activity A1) Method 1
Screening was carried out using SKNBE2 cells carrying the APP 695-wild type, grown in Dulbecco's Modified Eagle's Medium/Nutrient mixture F-12 (DMEM/NUT-mix F-12) (HAM) provided by Gibco (cat no. 31330-38) containing 5% Serum/Fe supplemented with 1% non-essential amino acids. Cells were grown to near confluency.
The screening was performed using the assay as described in Citron et al (1997) Nature Medicine 3: 67. Briefly, cells were plated in a 96-well plate at about 10^5 cells/ml one day prior to addition of compounds. Compounds were added to the cells in Ultraculture (Lonza, BE12-725F) supplemented with 1% glutamine (Invitrogen, 25030-024) for 18 h. The media were assayed by two sandwich ELISAs, for Aβ42 and Aβtotal. Toxicity of the compounds was assayed by WST-1 cell proliferation reagent (Roche, 1 644 807) according to the manufacturer's protocol.
To quantify the amount of Aβ42 in the cell supernatant, commercially available Enzyme-Linked-Immunosorbent-Assay (ELISA) kits were used (Innotest® β-Amyloid(1-42), Innogenetics N.V., Ghent, Belgium). The Aβ42 ELISA was performed essentially according to the manufacturer's protocol. Briefly, the standards (dilutions of synthetic Aβ1-42) were prepared in polypropylene Eppendorf with final concentrations of 8000 down to 3.9 pg/ml (1/2 dilution step). Samples, standards and blanks (100 μl) were added to the anti-Aβ42-coated plate supplied with the kit (the capture antibody selectively recognizes the C-terminal end of the antigen). The plate was allowed to incubate 3 h at 25° C. in order to allow formation of the antibody-amyloid complex. Following this incubation and subsequent wash steps a selective anti-Aβ-antibody conjugate (biotinylated 3D6) was added and incubated for a minimum of 1 hour (h) in order to allow formation of the antibody-Amyloid-antibody-complex. After incubation and appropriate wash steps, a Streptavidine-Peroxidase-Conjugate was added, followed 30 minutes later by an addition of 3,3′,5,5′-tetramethylbenzidine (TMB)/peroxide mixture, resulting in the conversion of the substrate into a coloured product. This reaction was stopped by the addition of sulfuric acid (0.9 N) and the colour intensity was measured by means of photometry with an ELISA-reader with a 450 nm filter.
To obtain the values reported in Table 3a, the data were calculated as percentage of the maximum amount of amyloid Beta 42 measured in the absence of the test compound. The sigmoidal dose response curves were analyzed using non-linear regression analysis with percentage of the control plotted against the log concentration of the compound. A 4-parameter equation was used to determine the IC50. The values reported in Table 3a are averaged IC50 values.

[2] = system: Aβ42; experiment: γ-secretase-modulating activity, Method 2: Aβ42 Alphalisa in supernatant of SKNBE2 cells carrying APP 695-wild type (Table 3b); assay type: cell-based; details: overnight
How it was run: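 Aβ42 in the supernatant was quantified by AlphaLISA sandwich (JRF/cAβ42/26 with JRF/AβN/25). Cells were wild-type APP695 SKNBE2, exposed to compound overnight at 37° C., 5% CO2. Data were normalised to untreated maximum and fitted with a four-parameter curve to give IC50.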

| IC50 [1] | IC50 [2] | IC50 ([1]; Homo sapiens) | IC50 ([2]; Homo sapiens) | Structure (SMILES) |
| --- | --- | --- | --- | --- |
| 250 nM | 50 nM |  |  | COc1cc(-c2nc(Nc3ccc(F)cc3C(F)(F)F)n(C)n2)ccc1-n1cnc(C)c1 [Compound 15] |
|  | 15 nM |  |  | COc1cc(-c2nc(Nc3cccc(C(F)(F)F)c3)n(C)n2)ccc1-n1cnc(C)c1 [Compound 146] |
|  |  | 790 nM | 603 nM | COc1cc(-c2nc(-c3ccccc3)n(C)n2)ccc1-n1cnc(C)c1 [Compound 9] |
|  |  | 110 nM | 182 nM | COc1cc(-c2nc(C)c(-c3ccccc3)[nH]2)ccc1-n1cnc(C)c1 [Compound 11] |
